Data published in US20240116857A1 (St. Louis University, priority 2022, published 2024).
≈ marks a conversion by molar mass, not a printed value.

Tested on: E. coli BW25113
Experiment: MIC, 2-fold broth dilution, E. coli BW25113
Assay type: cell-based, Escherichia coli
Conditions: Escherichia coli; E. coli BW25113; asterisk in column 1-10; read-out: MIC, μM 1-10

SMILES	MIC [µM]
C#CC[N+](C)(C)c1ccc(NC(=O)c2ccc(-c3ccc(C(=O)Nc4ccc([N+](C)(C)C)c(F)c4)cc3)cc2)cc1F [Example 94, 4-(4′-((4-(dimethyl(prop-2-yn-1-yl)ammonio)-3-fluorophenyl)carbamoyl)-[1,1′-biphenyl]-4-carboxamido)-2-fluoro-N,N,N-trimethylbenzenaminium]	1 to 10
C#CCCCCOc1cc(NC(=O)c2ccc(-c3ccc(C(=O)Nc4ccc([N+](C)(C)C)c(F)c4)cc3)cc2)ccc1[N+](C)(C)C [Example 96, 2-fluoro-4-(4′-((3-(hex-5-yn-1-yloxy)-4-(trimethylammonio)phenyl)carbamoyl)-[1,1′-biphenyl]-4-carboxamido)-N,N,N-trimethylbenzenaminium]	1 to 10
COc1cc(NC(=O)c2ccc(-c3ccc(C(=O)Nc4ccc([N+](C)(C)C)c(F)c4)cc3)cc2)ccc1[N+](C)(C)C [Example 98, 2-fluoro-4-(4′-((3-methoxy-4-(trimethylammonio)phenyl)carbamoyl)-[1,1′-biphenyl]-4-carboxamido)-N,N,N-trimethylbenzenaminium]	1 to 10
C#CCCOc1cc(NC(=O)c2ccc(-c3ccc(C(=O)Nc4ccc([N+](C)(C)C)c(F)c4)cc3)cc2)ccc1[N+](C)(C)C [Example 103, 2-(but-3-yn-1-yloxy)-4-(4′-((3-fluoro-4-(trimethylammonio)phenyl)carbamoyl)-[1,1′-biphenyl]-4-carboxamido)-N,N,N-trimethylbenzenaminium]	1 to 10
C#CCCCCCCCCOc1cc(NC(=O)c2ccc(-c3ccc(C(=O)Nc4ccc([N+](C)(C)C)c(F)c4)cc3)cc2)ccc1[N+](C)(C)C [Example 116]	1 to 10
CN(C)c1ccc(NC(=O)c2ccc(-c3ccc(C(=O)Nc4ccc(N5CCCCC5)cc4)cc3)cc2)cc1 [Example 127]	1 to 10 (≈ 0.519 to 5.19 µg/mL)
COc1cc(NC(=O)c2ccc(-c3ccc(C(=O)Nc4ccc(N5CCCCC5)cc4)cc3)cc2)ccc1N(C)C [Example 128]	1 to 10 (≈ 0.549 to 5.49 µg/mL)
C[N+](C)(C)c1ccc(NC(=O)c2ccc(-c3ccc(C(=O)Nc4ccc([N+]5(C)CCCCC5)cc4)cc3)cc2)cc1F [Example 129]	1 to 10

Same assay, conditions: Escherichia coli; E. coli BW25113; asterisk in column 10-50; read-out: MIC, μM 10-50

SMILES	MIC [µM]
C#CCCC[N+](C)(C)c1ccc(NC(=O)c2ccc(-c3ccc(C(=O)Nc4ccc([N+](C)(C)C)c(F)c4)cc3)cc2)cc1F [Example 118]	10 to 50

Same assay, conditions: Escherichia coli; E. coli BW25113; asterisk in column >50; read-out: MIC, μM >50

SMILES	MIC [µM]
Cc1cc(C(=O)Nc2ccc(N(C)C)c(F)c2)ccc1-c1ccc(C(=O)Nc2ccc(N(C)C)c(F)c2)cc1 [Example 90, N^4,N^4′-bis(4-(dimethylamino)-3-fluorophenyl)-2-methyl-[1,1′-biphenyl]-4,4′-dicarboxamide]	> 50
Cc1cc(C(=O)Nc2ccc([N+](C)(C)C)c(F)c2)ccc1-c1ccc(C(=O)Nc2ccc([N+](C)(C)C)c(F)c2)cc1 [Example 91, 4,4′-((2-methyl-[1,1′-biphenyl]-4,4′-dicarbonyl)bis(azanediyl))bis(2-fluoro-N,N,N-trimethylbenzenaminium)]	> 50
O=C(NCc1ccncc1)c1ccc(-c2ccc(C(=O)NCc3ccncc3)cc2)cc1 [Example 92, N^4,N^4′-bis(pyridin-4-ylmethyl)-[1,1′-biphenyl]-4,4′-dicarboxamide]	> 50
C#CCN(C)c1ccc(NC(=O)c2ccc(-c3ccc(C(=O)Nc4ccc(N(C)C)c(F)c4)cc3)cc2)cc1F [Example 93, N^4-(4-(dimethylamino)-3-fluorophenyl)-N^4′-(3-fluoro-4-(methyl(prop-2-yn-1-yl)amino)phenyl)-[1,1′-biphenyl]-4,4′-dicarboxamide]	> 50
C#CCCCCOc1cc(NC(=O)c2ccc(-c3ccc(C(=O)Nc4ccc(N(C)C)c(F)c4)cc3)cc2)ccc1N(C)C [Example 95, N^4-(4-(dimethylamino)-3-(hex-5-yn-1-yloxy)phenyl)-N^4′-(4-(dimethylamino)-3-fluorophenyl)-[1,1′-biphenyl]-4,4′-dicarboxamide]	> 50
COc1cc(NC(=O)c2ccc(-c3ccc(C(=O)Nc4ccc(N(C)C)c(F)c4)cc3)cc2)ccc1N(C)C [Example 97, N^4-(4-(dimethylamino)-3-fluorophenyl)-N^4′-(4-(dimethylamino)-3-methoxyphenyl)-[1,1′-biphenyl]-4,4′-dicarboxamide]	> 50
C#CCCOc1cc(NC(=O)c2ccc(-c3ccc(C(=O)Nc4ccc(N(C)C)c(F)c4)cc3)cc2)ccc1N(C)C [Example 99, N^4-(3-(but-3-yn-1-yloxy)-4-(dimethylamino)phenyl)-N^4′-(4-(dimethylamino)-3-fluorophenyl)-[1,1′-biphenyl]-4,4′-dicarboxamide]	> 50
C[n+]1ccc(CNC(=O)c2ccc(-c3ccc(C(=O)NCc4cc[n+](C)cc4)cc3)cc2)cc1 [Example 100, 4,4′-((([1,1′-biphenyl]-4,4′-dicarbonyl)bis(azanediyl))bis(methylene))bis(1-methylpyridin-1-ium)]	> 50
CN(C)c1ccc(CNC(=O)c2ccc(-c3ccc(C(=O)NCc4ccc(N(C)C)cc4)cc3)cc2)cc1 [Example 101, N^4,N^4′-bis(4-(dimethylamino)benzyl)-[1,1′-biphenyl]-4,4′-dicarboxamide]	> 50
C[N+](C)(C)c1ccc(CNC(=O)c2ccc(-c3ccc(C(=O)NCc4ccc([N+](C)(C)C)cc4)cc3)cc2)cc1 [Example 102, 4,4′-((([1,1′-biphenyl]-4,4′-dicarbonyl)bis(azanediyl))bis(methylene))bis(N,N,N-trimethylbenzenaminium)]	> 50
C#CCN(C)c1ccc(NC(=O)c2ccc(-c3ccc(C(=O)Nc4ccc([N+](C)(C)C)c(F)c4)cc3)cc2)cc1F [Example 104]	> 50
COC(=O)Cn1cc(CCC[N+](C)(C)c2ccc(NC(=O)c3ccc(-c4ccc(C(=O)Nc5ccc([N+](C)(C)C)c(F)c5)cc4)cc3)cc2F)nn1 [Example 106]	> 50
COC(=O)Cn1cc(CCOc2cc(NC(=O)c3ccc(-c4ccc(C(=O)Nc5ccc([N+](C)(C)C)c(F)c5)cc4)cc3)ccc2[N+](C)(C)C)nn1 [Example 107]	> 50
COC(=O)Cn1cc(C[N+](C)(C)c2ccc(NC(=O)c3ccc(-c4ccc(C(=O)Nc5ccc([N+](C)(C)C)c(F)c5)cc4)cc3)cc2F)nn1 [Example 108]	> 50
CN(C)c1ccc(NC(=O)c2ccc(-c3ccc(C(=O)Nc4ccc(N5CCCCC5)cc4)cc3)cc2)cc1F [Example 111]	> 50
CN(C)c1ccc(NC(=O)c2ccc(-c3ccc(C(=O)Nc4ccc(N(C)C)c(F)c4)cc3)cc2)cc1 [Example 112]	> 50
CN(C)c1ccc(NC(=O)c2ccc(-c3ccc(C(=O)Nc4ccc(N(C)C)c(F)c4)cc3C(F)(F)F)cc2)cc1F [Example 114]	> 50
CN(C)c1ccc(NC(=O)c2ccc(-c3ccc(C(=O)Nc4ccc(N(C)C)c(Cl)c4)cc3)cc2)cc1F [Example 115]	> 50

SMILES	MIC [µM]
C#CCCCCCCCCOc1cc(NC(=O)c2ccc(-c3ccc(C(=O)Nc4ccc(N(C)C)c(F)c4)cc3)cc2)ccc1N(C)C [Example 117]	> 50
C#CCCCC[N+](C)(C)c1ccc(NC(=O)c2ccc(-c3ccc(C(=O)Nc4ccc([N+](C)(C)C)c(F)c4)cc3)cc2)cc1F [Example 121]	> 50
C#CCCCOc1cc(NC(=O)c2ccc(-c3ccc(C(=O)Nc4ccc([N+](C)(C)C)c(F)c4)cc3)cc2)ccc1[N+](C)(C)C [Example 122]	> 50
C#CCCCOc1cc(NC(=O)c2ccc(-c3ccc(C(=O)Nc4ccc(N(C)C)c(F)c4)cc3)cc2)ccc1N(C)C [Example 123]	> 50
C#CCCCN(C)c1ccc(NC(=O)c2ccc(-c3ccc(C(=O)Nc4ccc(N(C)C)c(F)c4)cc3)cc2)cc1F [Example 124]	> 50
CN(C)c1ccc(NC(=O)c2ccc(-c3ccc(C(=O)Nc4ccc([N+](C)(C)C)c(F)c4)cc3)cc2)cc1F [Example 125]	> 50
C#CCCCCN(C)c1ccc(NC(=O)c2ccc(-c3ccc(C(=O)Nc4ccc(N(C)C)c(F)c4)cc3)cc2)cc1F [Example 126]	> 50
C[N+](C)(C)c1ccc(NC(=O)c2ccc(-c3ccc(C(=O)Nc4ccc([N+](C)(C)C)c(F)c4)cc3)cc2)cc1 [Example 130]	> 50
C[N+](C)(C)c1ccc(NC(=O)c2ccc(-c3ccc(C(=O)Nc4ccc([N+](C)(C)C)c(Cl)c4)cc3)cc2)cc1F [Example 131]	> 50
C[N+](C)(C)c1ccc(NC(=O)c2ccc(-c3ccc(C(=O)Nc4ccc([N+](C)(C)CCCCc5cn(CCOCCOCCOCCNC(=O)CCCC[C@@H]6SC[C@@H]7NC(=O)N[C@@H]76)nn5)c(F)c4)cc3)cc2)cc1F [Example 132]	> 50
C[N+](C)(C)c1ccc(NC(=O)c2ccc(-c3ccc(C(=O)Nc4ccc([N+](C)(C)CCCc5cn(CCOCCOCCOCCNC(=O)CCCC[C@@H]6SC[C@@H]7NC(=O)N[C@@H]76)nn5)c(F)c4)cc3)cc2)cc1F [Example 133]	> 50
C[N+](C)(C)c1ccc(NC(=O)c2ccc(-c3ccc(C(=O)Nc4ccc([N+](C)(C)Cc5cn(CCOCCOCCOCCNC(=O)CCCC[C@@H]6SC[C@@H]7NC(=O)N[C@@H]76)nn5)c(F)c4)cc3)cc2)cc1F [Example 134]	> 50
C[N+](C)(C)c1ccc(NC(=O)c2ccc(-c3ccc(C(=O)Nc4ccc([N+](C)(C)C)c(OCCCCCCCCc5cn(CCOCCOCCONC(=O)CCCC[C@@H]6SC[C@@H]7NC(=O)N[C@@H]76)nn5)c4)cc3)cc2)cc1F [Example 135]	> 50
C[N+](C)(C)c1ccc(NC(=O)c2ccc(-c3ccc(C(=O)Nc4ccc([N+](C)(C)C)c(OCCCCc5cn(CCOCCOCCOCCNC(=O)CCCC[C@@H]6SC[C@@H]7NC(=O)N[C@@H]76)nn5)c4)cc3)cc2)cc1F [Example 136]	> 50
C[N+](C)(C)c1ccc(NC(=O)c2ccc(-c3ccc(C(=O)Nc4ccc([N+](C)(C)C)c(OCCCc5cn(CCOCCOCCOCCNC(=O)CCCC[C@@H]6SC[C@@H]7NC(=O)N[C@@H]76)nn5)c4)cc3)cc2)cc1F [Example 137]	> 50
C[N+](C)(C)c1ccc(NC(=O)c2ccc(-c3ccc(C(=O)Nc4ccc([N+](C)(C)C)c(OCCc5cn(CCOCCOCCOCCNC(=O)CCCC[C@@H]6SC[C@@H]7NC(=O)N[C@@H]76)nn5)c4)cc3)cc2)cc1F [Example 138]	> 50
C#CCCN(C)c1ccc(NC(=O)c2ccc(-c3ccc(C(=O)Nc4ccc(N(C)C)c(F)c4)cc3)cc2)cc1F [Example 139]	> 50
